According to US20210181215A1, “TREATMENT AND DIAGNOSIS OF ANAEMIA” (THE UNIVERSITY COURT OF THE UNIVERSITY OF ABERDEEN, priority 2017, published 2021):
Entries after “also recorded” stand apart in the source; their conditions may differ.

Tests used:
[1] = system: uptake of RBC from patients with SCD (HbSS) by HMDM; assay: Efferocytosis assay: uptake of RBC from patients with SCD by HMDM; assay type: cell-based, human; settings: 3 h assay, mannan 10 mg/ml, chitin 50 μg/ml, anti-CD206 10 μg/ml
Experimental: (§1) For clear identification of efferocytosis by microscopy, RBC were stained with cell trace far red (CTFR; Molecular Probes) according to manufacturer's instructions. RBC were added to HMDM at 5×10^7 cells per well for three hours before gentle removal and fixation with 4% paraformaldehyde. To identify cells bound but not and ingested by HMDM the cells were stained with anti-glycophorin A/B FITC (HIR2, Biolegend).
(§2) Ligand binding of CD206 was blocked with antibody clone 15.2 (10 μg/ml; BioLegend) by adding antibody or isotype control (10 μg/ml mouse IgG1 kappa clone 107.3, BD Biosciences) for 60 minutes prior to three hour efferocytosis assay and were not removed.
(§3) Mannan (10 mg/ml), chitin (50 μg/ml) and laminarin (10 μg/ml; all Sigma Aldrich) were applied for 60 minutes prior to three hour efferocytosis/phagocytosis assay and were not removed.
(§4) Cells were imaged at 32 times magnification using Immuno-Fluorescent Microscope (Zeiss).

[2] = target: T1, Galanthus nivalis lectin (GNA) (Galanthus nivalis, UniProt P30617); assay: Flow cytometry blockade of GNA lectin binding to the RBC surface; settings: oxidised / SCD RBC; lectin pre-incubated with mannan 5 mg/ml for 15 min
T1 construct: purchased Vector Laboratories B1245
T1 sequence (P30617 24-128 limits assumed): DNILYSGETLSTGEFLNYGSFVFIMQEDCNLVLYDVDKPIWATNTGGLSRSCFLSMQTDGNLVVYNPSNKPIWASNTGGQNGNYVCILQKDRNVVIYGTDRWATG
Experimental: RBC, approximately 5×10^6 per test, were washed three times in PBS, and then incubated in calcium buffer with biotinylated GNA (4 μg/ml, Vector Laboratories, B1245) or in PBS for PNA-FITC (2 μg/ml Sigma Aldrich L7381) for 30 minutes in calcium buffer at room temperature (protected from light). Cells were then washed and incubated with streptavidin PE-Cy7 (0.27 μg/ml; eBioscience) or PE (0.67 μg/ml; BD Pharmingen) for 30 min at room temperature. Cells were washed and analysed.
(§5) For blockade testing, Lectin or FC fusion were pre-incubated with mannan (5 mg/ml, unless otherwise stated) for 15 minutes at room temperature. Mixture of mannan and Lectin or FC fusion was then incubated with washed RBC and compared to binding of Lectin or FC fusion without mannan.
(§6) Samples were acquired on FACSCalibur (BD) and analysed using FlowJo v10.0 (Treestar) software. The normalised geomean was calculated by subtracting the geomean of the secondary only paired controls. For PNA-FITC analysis, normalised geomean was calculated by subtracting geomean of unstained RBC (PBS incubation) control.

[3] = system: untreated RBC uptake by HMDM; assay: Efferocytosis assay: uptake of untreated RBC by HMDM; assay type: cell-based, human; settings: 3 h assay
Experimental: as §1, §3, §4

[4] = system: oxidised RBC uptake by HMDM; assay: Efferocytosis assay: uptake of oxidised RBC by human monocyte derived macrophages; assay type: cell-based; settings: RBC oxidised with CuSO4/ascorbic acid, 3 h assay, mannan 10 mg/ml, chitin 50 μg/ml, laminarin 10 μg/ml, anti-CD206 clone 15.2 10 μg/ml applied 60 min before, siRNA against MRC-1
Experimental: RBC and SHSy5y neuronal cells were incubated with copper sulphate (CuSO4, 0.2 mM) and ascorbic acid (5 mM) for 60 minutes (RBC) or 30 minutes (SHSy5y) at 37° C. in DMEM with 4.5 g/L glucose. Cells were then washed in PBS three times prior to assays.
as §1, §2, §3, §4
To access percentage MR positive spindle/small round macrophages, anti-MR antibody (unlabelled clone 19.2) was stained with anti-mouse PE secondary antibody. Only spindle/small round macrophage population was examined as this is the subpopulation that expresses MR in wild type macrophages. SiRNA ([…], antisense, concentration Life Technologies) against mannose receptor (MRC-1) in humans was transfected into primary macrophages (RNAiMax, Life Technologies). (n=4 donors for all SiRNA experiments. Autologous red blood cells were used with macrophages.) Mannose receptor expression was established by microscopy using MR-Alexa-488 staining (described above) in the small non-granular macrophage sub-population by merging bright field and mannose receptor fluorescence staining.

[5] = system: carbohydrate binding domain of the mannose receptor CD206 (MR-CRD); assay: Flow cytometry blockade of MR-CRD (CD206 carbohydrate binding domain, Fc fusion) staining of oxidised RBC; parameters: species or system murine; settings: FC fusion pre-incubated with mannan 5 mg/ml
carbohydrate binding domain of the mannose receptor CD206 (MR-CRD), sequence (Q61830 645-781 limits assumed): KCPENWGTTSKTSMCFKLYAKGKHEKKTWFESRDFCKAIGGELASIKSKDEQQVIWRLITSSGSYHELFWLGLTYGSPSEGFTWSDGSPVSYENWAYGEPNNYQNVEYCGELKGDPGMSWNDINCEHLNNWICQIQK
Experimental: Humanised FC fusions of murine C-type lectins (5 μg/ml, kind gift from Gordon Brown, Screening for Ligands of C-Type Lectin-Like Receptors, Elwira PyżGordon D. Brown, 2011) were incubated with RBC for 30 minutes at room temperature in calcium buffer then detected by Alexa Fluor 647 goat anti-human secondary antibody (2 μg/ml, 109-605-098, Jackson ImmunoResearch Laboratories) incubated for 30 minutes at room temperature.
as §5, §6

[6] = system: phagocytosis of beads by HMDM; assay: Bead phagocytosis assay with HMDM (control); assay type: cell-based, human; settings: 3 h
Experimental: Coumarin stained Fluoresbrite microparticles (8 μm; Polysciences, Inc.) were added to HMDM at 5×107 beads per well for three hours before gentle removal and suspension in PBS for immediate imaging.
as §2, §3, §4

Substance	uptake of RBC from patients with SCD by HMDM [1]	blockade of GNA binding to RBC surface (FACS) [2]	uptake of untreated RBC by HMDM [3]	uptake (efferocytosis) of oxidised RBC by HMDM [4]	blockade of MR-CRD staining of oxidised RBC (FACS) [5]	phagocytosis of control beads by HMDM [6]	uptake (efferocytosis) of oxidised RBC by HMDM ([4]; listed as Mannan)
chitin	significantly inhibited; also recorded: blocked	inhibitable	not untreated	significantly inhibited; also recorded: abrogated			
laminarin				not laminarin, significantly inhibited			
mannan	significantly inhibited; also recorded: blocked	effective blockade; also recorded: inhibitable	not untreated	significantly inhibited; also recorded: abrogated	effective blockade	no effect	significantly blocked uptake
